The values below come from patent publication US11931431B2, “PSMA-targeted radiopharmaceutical for diagnosing and treating prostate cancer” (FUTURECHEM CO., LTD, priority 2018, dated 2024).

The target of this test is PSMA (Homo sapiens, UniProt Q04609). In words: Measurement of binding capacity: competition with [^125I]30 on 22RV1 cells. Details: host or cells: 22RV1 human prostate cancer cells. The conditions noted are these: for binding force / binding capacity to PSMA, in words / IC50 / Ki: 22RV1 cells; for IC50 / Ki: [^125I]30 0.1 nM, 37° C., 2 hours; for IC50: read-out: IC50; for Ki: read-out: Ki value. The method, then: To confirm the binding capacity of the compounds of the present invention to PSMA, the following experiment was performed.
Sequence of PSMA (Q04609 whole entry): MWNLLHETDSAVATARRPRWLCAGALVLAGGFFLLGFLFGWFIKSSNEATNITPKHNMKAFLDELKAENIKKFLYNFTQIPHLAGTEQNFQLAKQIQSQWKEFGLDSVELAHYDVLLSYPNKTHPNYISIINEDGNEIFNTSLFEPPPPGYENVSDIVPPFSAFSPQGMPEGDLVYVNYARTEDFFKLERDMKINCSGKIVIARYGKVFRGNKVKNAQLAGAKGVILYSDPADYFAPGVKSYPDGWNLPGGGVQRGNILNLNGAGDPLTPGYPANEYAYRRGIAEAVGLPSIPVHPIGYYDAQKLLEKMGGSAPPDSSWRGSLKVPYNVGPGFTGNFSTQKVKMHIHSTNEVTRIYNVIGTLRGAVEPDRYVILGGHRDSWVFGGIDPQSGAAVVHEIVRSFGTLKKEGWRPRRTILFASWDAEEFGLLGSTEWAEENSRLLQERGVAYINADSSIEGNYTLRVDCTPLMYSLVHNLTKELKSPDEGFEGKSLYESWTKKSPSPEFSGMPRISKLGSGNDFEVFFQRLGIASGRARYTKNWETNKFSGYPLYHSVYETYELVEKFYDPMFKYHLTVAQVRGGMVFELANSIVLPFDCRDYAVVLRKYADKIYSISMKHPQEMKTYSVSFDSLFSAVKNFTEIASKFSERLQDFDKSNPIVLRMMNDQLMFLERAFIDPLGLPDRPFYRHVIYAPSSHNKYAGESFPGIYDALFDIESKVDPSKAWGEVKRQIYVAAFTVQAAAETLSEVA
RPMI1640 supplemented with 1% BSA (bovine serum albumin) was used as a buffer solution.
[^125I]30 (0.1 nM) obtained in Comparative Example 1 was added to a vessel containing 22RV1 cells (5×10^4), to which the compound represented by formula 1 was loaded at 9 concentrations (1.00×10^−4˜1.00×10^−12 M), followed by stirring at 37° C. for 2 hours. Upon completion of the stirring, the vessel was washed with PBS solution (2 mL) three times, and then the radioactivity was measured using a gamma counter (2480 WIZARD2 Gamma Counter PerkinElmer Co., MA). The 50% inhibition concentration (IC50) for each compound was calculated using a GraphPad Prism program (GraphPad Software, Inc., CA)
(Maresca, K. P. et al., 2009, J. Med. Chem. 52, 347-357)

With `O=C(O)CC[C@H](NC(=O)N[C@@H](CCCCNC(=O)NCc1cn(CCOCCNC(=O)CN2CCN3CCN4CCN(CC2)CC(=O)[O][Ga]([O]C(=O)C3)[O]C(=O)C4)nn1)C(=O)O)C(=O)O` [Ga-1a], the “binding force / binding capacity to PSMA, in words” value (from here on “binding force / binding capacity”) is listed as “relatively low binding force to PSMA”; the IC50 is 571 ± 136 nM; the inhibitory constant (Ki) amounted to 69.9 ± 29.8 nM. Further, the “binding force to PSMA, times higher than that of Ga-1a” value (compared with Ga-1a) was “about 18.6 times”.

As to `O=C(O)CC[C@H](NC(=O)N[C@@H](CCCCNC(=O)N(Cc1cn(CCOCCNC(=O)CN2CCN3CCN4CCN(CC2)CC(=O)[O][Ga]([O]C(=O)C3)[O]C(=O)C4)nn1)c1ccncc1)C(=O)O)C(=O)O` [Ga-1b], the IC50 was 237 ± 47.1 nM and the Ki is 18.7 ± 1.87 nM.

Consider `O=C(O)CC[C@H](NC(=O)N[C@@H](CCCCN(CC(=O)O)C(=O)CCc1cn(CCOCCNC(=O)CN2CCN3CCN4CCN(CC2)CC(=O)[O][Ga]([O]C(=O)C3)[O]C(=O)C4)nn1)C(=O)O)C(=O)O` [Ga-1c], for which the 50% inhibitory concentration (IC50) was 21.2 ± 2.06 nM and the inhibitory constant (Ki) was 3.76 ± 0.37 nM.

Consider `O=C(O)CC[C@H](NC(=O)N[C@@H](CCCCN(CCC(=O)O)C(=O)CCc1cn(CCOCCNC(=O)CN2CCN3CCN4CCN(CC2)CC(=O)[O][Ga]([O]C(=O)C3)[O]C(=O)C4)nn1)C(=O)O)C(=O)O` [Ga-1d], for which the 50% inhibitory concentration (IC50) turned out to be 75.3 ± 18.6 nM and the inhibitory constant (Ki) is 18.6 ± 4.6 nM.

For `O=C(O)CCC(NC(=O)NC(CCCCN(CC(=O)O)C(=O)COCCOCCNC(=O)CN1CCN2CCN3CCN(CC1)CC(=O)[O][Ga]([O]C(=O)C2)[O]C(=O)C3)C(=O)O)C(=O)O` (stereo not drawn) [Ga-1e], the 50% inhibitory concentration (IC50) was 47.4 ± 1.78 nM and the inhibition constant Ki worked out at 12.9 ± 0.49 nM.

Consider `O=C(O)CC[C@H](NC(=O)N[C@@H](CCCCN(CC(=O)O)C(=O)COCCOCCNC(=O)[C@H](CCCCNC(=O)CCCc1ccccc1)NC(=O)CN1CCN2CCN3CCN(CC1)CC(=O)[O][Ga]([O]C(=O)C2)[O]C(=O)C3)C(=O)O)C(=O)O` [Ga-1f], for which the “binding force / binding capacity” value was “higher binding capacity than the compound Ga-1e”; the concentration for half-maximal inhibition (IC50) stood at 25.7 ± 5.06 nM; the inhibition constant (Ki) was 8.12 ± 1.6 nM.

`Cc1ccc(CCCC(=O)NCCCC[C@H](NC(=O)CN2CCN3CCN4CCN(CC2)CC(=O)[O][Ga]([O]C(=O)C3)[O]C(=O)C4)C(=O)NCCOCCOCC(=O)N(CCCC[C@H](NC(=O)N[C@@H](CCC(=O)O)C(=O)O)C(=O)O)CC(=O)O)cc1` [Ga-1g]: the “binding force / binding capacity” value was “higher binding capacity than the compound Ga-1e”; the IC50 came out at 18.4 ± 0.35 nM; the inhibitory constant (Ki) was 5.82 ± 0.11 nM.
